Results: ChEMBL document CHEMBL6096728, “Simultaneous Induction of Immunogenic Pyroptosis and PD-L1 Downregulation by One Single Photosensitizer for Synergistic Cancer Photoimmunotherapy” (J Med Chem, 2025)
Calls of active or inactive are those of the source. No cut-off for these calls is given here.

Key:
4T1 [1] = assay: Antitumor immunity against mouse 4T1 cells implanted in BALB/c mouse model assessed as increase in proportion of tumor infiltrating CD4+ T cells at 25 mg/kg, iv measured after 14 days under light irradiation of 300 mW.cm/2 at 400 to 700nm measured after 5 mins by immunofluorescence analysis; format: functional, organism-based; details: time 14.0 day
[2] = Toxicity in BALB/c mouse assessed as effect on lung at 25 mg/kg, iv measured after 14 days under light irradiation of 300 mW.cm/2 at 400 to 700nm measured after 5 mins; format: organism-based; details: in vivo, 336 h, 0.7 µM, time 14 day
4T1 [3] = assay: Antitumor activity against mouse 4T1 cells implanted in BALB/c mouse model assessed as reduction in tumor growth at 25 mg/kg, iv measured after 14 days under light irradiation of 300 mW.cm/2 at 400 to 700nm measured after 5 mins; format: functional, organism-based; details: time 14.0 day
4T1 [4] = assay: Antitumor immunity against mouse 4T1 cells implanted in BALB/c mouse model assessed as increase in IFN-gamma secretion in tumors at 25 mg/kg, iv measured after 14 days under light irradiation of 300 mW.cm/2 at 400 to 700nm measured after 5 mins by ELISA method; format: functional, organism-based; details: time 14.0 day
[5] = Toxicity in BALB/c mouse assessed as effect on spleen at 25 mg/kg, iv measured after 14 days under light irradiation of 300 mW.cm/2 at 400 to 700nm measured after 5 mins; format: organism-based; details: in vivo, 336 h, 0.7 µM, time 14 day
4T1 [6] = assay: Cytotoxicity against mouse 4T1 cells at 0.01 to 10 uM incubated for 2 hrs under dark condition by CCK-8 method; format: functional, cell-based; details: dose 0.01-10 µM
4T1 [7] = assay: Antitumor immunity against mouse 4T1 cells implanted in BALB/c mouse model assessed as fold increase in CD8+ T cells in spleen at 25 mg/kg, iv measured after 14 days under light irradiation of 300 mW.cm/2 at 400 to 700nm measured after 5 mins […]; format: functional; details: time 14 day
[8] = Toxicity in BALB/c mouse assessed as effect on tumor at 25 mg/kg, iv measured after 14 days by H and E staining based analysis; format: organism-based; details: in vivo, 336 h, time 14 day
Homo sapiens = species: Homo sapiens; assay: Binding affinity to PD-L1 (unknown origin) by streptavidin-biotin pull down assay
4T1 [9] = assay: Induction of cell death in mouse 4T1 cells assessed as increase in red fluorescence at 0.5 uM incubated for 24 hrs followed by light irradiation of 20 mW.cm/2 at 400 to 700nm for 10 mins by Calcein-AM/PI staining based analysis; format: functional
4T1 [10] = assay: Inhibition of mouse 4T1 cells at 0.1 uM under light irradiation of 20 mW.cm/2 at 400 to 700nm measured after 14 days by crystal violet staining based assay; format: functional, cell-based; details: time 14.0 day
4T1 [11] = assay: Antitumor activity against mouse 4T1 cells implanted in BALB/c mouse model assessed as reduction in tumor volume at 25 mg/kg, iv measured after 14 days; format: functional, organism-based; details: time 14.0 day
4T1 [12] = assay: (§1) Induction of intracellular ROS generation in mouse 4T1 cells assessed as increase in fluorescence intensity at 0.1 uM preincubated for 2 hrs followed by compound washout further incubated with DCFH-DA probe for 30 mins under light irradiation of 20 mW.cm/2 at 400 to 700nm measured after 10 mins by flow cytometry analysis; format: functional, cell-based
4T1 [13] = assay: Antitumor immunity against mouse 4T1 cells implanted in BALB/c mouse model assessed as increase in IL-6 secretion in tumors at 25 mg/kg, iv measured after 14 days under light irradiation of 300 mW.cm/2 at 400 to 700nm measured after 5 mins by ELISA method; format: functional, organism-based; details: time 14.0 day
4T1 [14] = assay: as §1, with “10 mins in presence of NaN3 by flow” for “10 mins by flow”; format: functional, cell-based
MDA-MB-231 [15] = assay: Induction of pyroptosis mediated immunogenic cell death in human MDA-MB-231 cells assessed as increase in CRT exposure on cell membrane at 0.5 uM incubated for 12 hrs under light irradiation of 20 mW.cm/2 at 400 to 700nm for 10 mins; format: functional, cell-based
[16] = Toxicity in BALB/c mouse assessed as effect on liver at 25 mg/kg, iv measured after 14 days under light irradiation of 300 mW.cm/2 at 400 to 700nm measured after 5 mins; format: organism-based; details: in vivo, 336 h, 0.7 µM, time 14 day
MDA-MB-231 [17] = assay: Induction of pyroptosis in human MDA-MB-231 cells assessed as upregulation of caspase-3 expression level at 0.1 to 0.5 uM preincubated with compound for 12 hrs followed by light irradiation of 20 mW.cm/2 at 400 to 700nm for 10 mins by Western blot analysis; format: functional, cell-based; details: dose 0.1-0.5 µM
MDA-MB-231 [18] = assay: Induction of pyroptosis in human MDA-MB-231 cells assessed as effect on GSDMD-N expression level at 0.1 to 0.5 uM preincubated with compound for 12 hrs followed by light irradiation of 20 mW.cm/2 at 400 to 700nm for 10 mins by Western blot analysis; format: functional, cell-based; details: dose 0.1-0.5 µM
[19] = Drug accumulation in BALB/c mouse tumor implanted with mouse 4T1 cells assessed as increase in fluorescence intensity at 25 mg/kg, iv measured after 3 hrs by imaging based analysis; format: ADME, organism-based, Neoplasm; details: in vivo
MDA-MB-231 [20] = assay: Induction of pyroptosis in human MDA-MB-231 cells assessed as formation of bubble-like protrusion on cell surface at 0.25 uM preincubated with compound for 12 hrs followed by light irradiation of 20 mW.cm/2 at 400 to 700nm for 10 mins by confocal fluorescence microscopy analysis; format: functional, cell-based
[21] = Toxicity in BALB/c mouse assessed as effect on liver at 25 mg/kg, iv measured after 14 days by H and E staining based analysis; format: organism-based; details: in vivo, 336 h, time 14 day
[22] = Toxicity in BALB/c mouse assessed as effect on hemoglobin at 25 mg/kg, iv measured after 14 days under light irradiation of 300 mW.cm/2 at 400 to 700nm measured after 5 mins; format: organism-based; details: in vivo, 336 h, 0.7 µM, time 14 day
[23] = Phototoxicity against mouse 4T1 cells preincubated for 2 hrs followed by light irradiation of 20 mW.cm/2 at 400 at 700nm for 24 hrs by CCK-8 method; format: functional, cell-based; details: 4T1, light or radiation study
[24] = Toxicity in BALB/c mouse assessed as effect on spleen at 25 mg/kg, iv measured after 14 days by H and E staining based analysis; format: organism-based; details: in vivo, 336 h, time 14 day
[25] = Drug accumulation in BALB/c mouse tumor implanted with mouse 4T1 cells assessed as increase in fluorescence intensity at 25 mg/kg, iv measured after 0 to 3 hrs by imaging based analysis; format: ADME, organism-based, Neoplasm; details: in vivo, time 0-3 hrs
MDA-MB-231 [26] = assay: Induction of pyroptosis mediated immunogenic cell death in human MDA-MB-231 cells assessed as increase in HMGB1 release at 0.5 uM incubated for 12 hrs under light irradiation of 20 mW.cm/2 at 400 to 700nm for 10 mins; format: functional, cell-based
MDA-MB-231 [27] = assay: Inhibition of human MDA-MB-231 cells at 0.1 uM under light irradiation of 20 mW.cm/2 at 400 to 700nm measured after 14 days by crystal violet staining based assay; format: functional, cell-based; details: time 14.0 day

**Q.** With O=c1cc2sc3cc(N4CCNCC4)ccc3nc-2c2ccccc12 as the compound, how does the Activity (4T1 [1]) read?
**A.** Its Activity is “Active”.

**Q.** What about the Activity [2] of the same compound?
**A.** Its Activity is “Non-toxic”.

**Q.** What about the Activity (4T1 [3]) of the same compound?
**A.** Its Activity is “Active”.

**Q.** And the Activity (4T1 [4])?
**A.** Its Activity is “Active”.

**Q.** And the Activity [5]?
**A.** The Activity was “Non-toxic”.

**Q.** What about the Activity (4T1 [6]) of the same compound?
**A.** Its Activity is “Active; Compound Showed Low Toxicity”.

**Q.** What about the “fold change (FC)” value (4T1 [7]) of the same compound?
**A.** Its value is 6.3.

**Q.** And the Activity [8]?
**A.** The Activity was “Toxic”.

**Q.** And the Activity (Homo sapiens)?
**A.** The Activity was “Not active; Compound Rarely Binds To Pd-L1”.

**Q.** And the Activity (4T1 [9])?
**A.** The Activity was “Active”.

**Q.** And the inhibition (4T1 [10])?
**A.** Its inhibition is “Active”.

**Q.** And the Activity (4T1 [11])?
**A.** The Activity was “Active”.

**Q.** What about the Activity (4T1 [12]) of the same compound?
**A.** The Activity was “Active”.

**Q.** And the Activity (4T1 [13])?
**A.** The Activity was “Active”.

**Q.** What about the Activity (4T1 [14]) of the same compound?
**A.** The Activity was “inactive”.

**Q.** What about the Activity (MDA-MB-231 [15]) of the same compound?
**A.** Its Activity is “Active”.

**Q.** And the Activity [16]?
**A.** Its Activity is “Non-toxic”.

**Q.** And the Activity (MDA-MB-231 [17])?
**A.** Its Activity is “Active”.

**Q.** And the Activity (MDA-MB-231 [18])?
**A.** Its Activity is “inactive”.

**Q.** And the Drug uptake [19]?
**A.** Its Drug uptake is “Active”.

**Q.** What about the Activity (MDA-MB-231 [20]) of the same compound?
**A.** Its Activity is “Active”.

**Q.** What about the Activity [21] of the same compound?
**A.** Its Activity is “Non-toxic”.

**Q.** What about the Activity [22] of the same compound?
**A.** The Activity was “Non-toxic”.

**Q.** What about the IC50 [23] of the same compound?
**A.** Its IC50 is 403 nM.

**Q.** What about the Activity [24] of the same compound?
**A.** Its Activity is “Non-toxic”.

**Q.** What about the Drug uptake [25] of the same compound?
**A.** Its Drug uptake is “Active”.

**Q.** What about the Activity (MDA-MB-231 [26]) of the same compound?
**A.** Its Activity is “Active”.

**Q.** And the inhibition (MDA-MB-231 [27])?
**A.** Its inhibition is “Active”.
